Assay results: PubChem BioAssay (NCI)
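GI50 marks 50% less growth. TGI denotes the concentration required for complete inhibition of growth.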

Columns and labels:
Assay in all cases: inhibition of tumour cell growth, NCI panel, 384-well format
A549 NSCLC = tested on: A549 NSCLC
SF-268 CNS = tested on: SF-268 CNS
KM12 colon = tested on: KM12 colon
SK-OV-3 ovarian = tested on: SK-OV-3 ovarian
BT-549 breast = tested on: BT-549 breast
MDA-MB-231 breast = tested on: MDA-MB-231 breast
HT29 colon = tested on: HT29 colon
UACC-62 melanoma = tested on: UACC-62 melanoma
UO-31 renal = tested on: UO-31 renal
OVCAR-3 ovarian = tested on: OVCAR-3 ovarian
786-0 renal = tested on: 786-0 renal
SNB-19 CNS = tested on: SNB-19 CNS
NCI-H226 lung = tested on: NCI-H226 lung
MCF7 breast = tested on: MCF7 breast
SW-620 colon = tested on: SW-620 colon
NCI/ADR-RES ovarian = tested on: NCI/ADR-RES ovarian
RXF 393 renal = tested on: RXF 393 renal
HL-60(TB) leukemia = tested on: HL-60(TB) leukemia
HCT-116 colon = tested on: HCT-116 colon
LOX IMVI melanoma = tested on: LOX IMVI melanoma
HOP-92 NSCLC = tested on: HOP-92 NSCLC
MDA-MB-435 melanoma = tested on: MDA-MB-435 melanoma
M14 melanoma = tested on: M14 melanoma
NCI-H23 lung = tested on: NCI-H23 lung
OVCAR-8 ovarian = tested on: OVCAR-8 ovarian
CAKI-1 renal = tested on: CAKI-1 renal
PC-3 prostate = tested on: PC-3 prostate
SN12C renal = tested on: SN12C renal
HCT-15 colon = tested on: HCT-15 colon
SK-MEL-5 melanoma = tested on: SK-MEL-5 melanoma
IGROV1 ovarian = tested on: IGROV1 ovarian
DU-145 prostate = tested on: DU-145 prostate
HOP-62 NSCLC = tested on: HOP-62 NSCLC
RPMI-8226 leukemia = tested on: RPMI-8226 leukemia
SNB-75 CNS = tested on: SNB-75 CNS
MDA-MB-468 breast = tested on: MDA-MB-468 breast
A498 renal = tested on: A498 renal
EKVX NSCLC = tested on: EKVX NSCLC
NCI-H460 NSCLC = tested on: NCI-H460 NSCLC
T-47D breast = tested on: T-47D breast
TK-10 renal = tested on: TK-10 renal
ACHN renal = tested on: ACHN renal
MOLT-4 leukemia = tested on: MOLT-4 leukemia
SK-MEL-28 melanoma = tested on: SK-MEL-28 melanoma
OVCAR-4 ovarian = tested on: OVCAR-4 ovarian
NCI-H322M lung = tested on: NCI-H322M lung
HCC-2998 colon = tested on: HCC-2998 colon
SF-295 CNS = tested on: SF-295 CNS
HS 578T breast = tested on: HS 578T breast
NCI-H522 lung = tested on: NCI-H522 lung
UACC-257 melanoma = tested on: UACC-257 melanoma
OVCAR-5 ovarian = tested on: OVCAR-5 ovarian
MALME-3M melanoma = tested on: MALME-3M melanoma
K-562 leukemia = tested on: K-562 leukemia
U251 glioblastoma = tested on: U251 glioblastoma
SF-539 CNS = tested on: SF-539 CNS
CCRF-CEM leukemia = tested on: CCRF-CEM leukemia
COLO 205 colon = tested on: COLO 205 colon
SR leukemia = tested on: SR leukemia

SMILES: O=C(Nc1cccc(Cl)c1)Nc1ncc(CCNc2ncnc3ccsc23)s1
- GI50 (A549 NSCLC): 0.121 µM
- TGI (A549 NSCLC): 15.4 µM
- GI50 (SF-268 CNS): < 0.01 µM
- TGI (SF-268 CNS): 0.781 µM
- GI50 (KM12 colon): 0.118 µM
- TGI (KM12 colon): 13.2 µM
- GI50 (SK-OV-3 ovarian): 5.02 µM
- TGI (SK-OV-3 ovarian): 19 µM
- GI50 (BT-549 breast): 1.07 µM
- TGI (BT-549 breast): 11.4 µM
- GI50 (MDA-MB-231 breast): 8.07 µM
- TGI (MDA-MB-231 breast): 20.8 µM
- GI50 (HT29 colon): 2.42 µM
- TGI (HT29 colon): 14.5 µM
- GI50 (UACC-62 melanoma): 1 µM
- TGI (UACC-62 melanoma): 16 µM
- GI50 (UO-31 renal): 3.5 µM
- TGI (UO-31 renal): 19.7 µM
- GI50 (OVCAR-3 ovarian): 0.174 µM
- TGI (OVCAR-3 ovarian): 15 µM
- GI50 ([…]-0 renal): 1.97 µM
- TGI (786-0 renal): 11.4 µM
- GI50 (SNB-19 CNS): 11.7 µM
- TGI (SNB-19 CNS): 24 µM
- GI50 (NCI-H226 lung): 2.94 µM
- TGI (NCI-H226 lung): 16.3 µM
- GI50 (MCF7 breast): 1.49 µM
- TGI (MCF7 breast): 13 µM
- GI50 (SW-620 colon): 14.6 µM
- TGI (SW-620 colon): 27.8 µM
- GI50 (NCI/ADR-RES ovarian): 2.44 µM
- TGI (NCI/ADR-RES ovarian): 11 µM
- GI50 (RXF 393 renal): 0.0169 µM
- TGI (RXF 393 renal): 2.55 µM
- GI50 (HL-60(TB) leukemia): < 0.01 µM
- TGI (HL-60(TB) leukemia): 3.63 µM
- GI50 (HCT-116 colon): 0.754 µM
- TGI (HCT-116 colon): 14.5 µM
- GI50 (LOX IMVI melanoma): 1.25 µM
- TGI (LOX IMVI melanoma): 13.8 µM
- GI50 (HOP-92 NSCLC): 3.53 µM
- TGI (HOP-92 NSCLC): 18.4 µM
- GI50 (MDA-MB-435 melanoma): 10 µM
- TGI (MDA-MB-435 melanoma): 21.6 µM
- GI50 (M14 melanoma): 1.79 µM
- TGI (M14 melanoma): 14.8 µM
- GI50 (NCI-H23 lung): 2.59 µM
- TGI (NCI-H23 lung): 16 µM
- GI50 (OVCAR-8 ovarian): 2.2 µM
- TGI (OVCAR-8 ovarian): 12 µM
- GI50 (CAKI-1 renal): 1.15 µM
- TGI (CAKI-1 renal): 14.1 µM
- GI50 (PC-3 prostate): 3.15 µM
- TGI (PC-3 prostate): 13.2 µM
- GI50 (SN12C renal): 3.01 µM
- TGI (SN12C renal): 18.2 µM
- GI50 (HCT-15 colon): 1.47 µM
- TGI (HCT-15 colon): 15.6 µM
- GI50 (SK-MEL-5 melanoma): 1.08 µM
- TGI (SK-MEL-5 melanoma): 2.53 µM
- GI50 (IGROV1 ovarian): 3.39 µM
- TGI (IGROV1 ovarian): 16 µM
- GI50 (DU-145 prostate): 4.52 µM
- TGI (DU-145 prostate): 18.1 µM
- GI50 (HOP-62 NSCLC): 0.356 µM
- TGI (HOP-62 NSCLC): 11 µM
- GI50 (RPMI-8226 leukemia): 0.308 µM
- TGI (RPMI-8226 leukemia): 11.5 µM
- GI50 (SNB-75 CNS): 4.06 µM
- TGI (SNB-75 CNS): 17 µM
- GI50 (MDA-MB-468 breast): 0.0283 µM
- TGI (MDA-MB-468 breast): 0.242 µM
- GI50 (A498 renal): 0.839 µM
- TGI (A498 renal): 18.5 µM
- GI50 (EKVX NSCLC): 1.68 µM
- TGI (EKVX NSCLC): 16.1 µM
- GI50 (NCI-H460 NSCLC): 0.0433 µM
- TGI (NCI-H460 NSCLC): 10.6 µM
- GI50 (T-47D breast): 0.228 µM
- TGI (T-47D breast): 2.36 µM
- GI50 (TK-10 renal): 9.81 µM
- TGI (TK-10 renal): 21.6 µM
- GI50 (ACHN renal): 1.52 µM
- TGI (ACHN renal): 17.3 µM
- GI50 (MOLT-4 leukemia): < 0.01 µM
- GI50 (SK-MEL-28 melanoma): 10.4 µM
- TGI (SK-MEL-28 melanoma): 22.2 µM
- GI50 (OVCAR-4 ovarian): 9.02 µM
- TGI (OVCAR-4 ovarian): 21.3 µM
- GI50 (NCI-H322M lung): 6.64 µM
- TGI (NCI-H322M lung): 19.6 µM
- GI50 (HCC-2998 colon): 10.3 µM
- TGI (HCC-2998 colon): 22 µM
- GI50 (SF-295 CNS): 2.17 µM
- TGI (SF-295 CNS): 18.1 µM
- GI50 (HS 578T breast): 0.104 µM
- TGI (HS 578T breast): 6.01 µM
- GI50 (NCI-H522 lung): 0.356 µM
- TGI (NCI-H522 lung): 12.1 µM
- GI50 (UACC-257 melanoma): 4.81 µM
- TGI (UACC-257 melanoma): 18.3 µM
- GI50 (OVCAR-5 ovarian): 8.83 µM
- TGI (OVCAR-5 ovarian): 21.2 µM
- GI50 (MALME-3M melanoma): 6.41 µM
- TGI (MALME-3M melanoma): 19.5 µM
- GI50 (K-562 leukemia): 1.34 µM
- TGI (K-562 leukemia): 14.1 µM
- GI50 (U251 glioblastoma): 7.52 µM
- TGI (U251 glioblastoma): 20.7 µM
- GI50 (SF-539 CNS): 0.306 µM
- TGI (SF-539 CNS): 14.7 µM

SMILES: CC(C)(O)c1ccc(N2CCN(c3nnc(Cc4ccccc4)c4ccccc34)CC2)nc1
- GI50 (A549 NSCLC): 5.79 µM
- GI50 (BT-549 breast): 6.9 µM
- GI50 (MDA-MB-231 breast): 3.22 µM
- GI50 (HT29 colon): 9.38 µM
- GI50 (UO-31 renal): 6.13 µM
- GI50 ([…]-0 renal): 6.92 µM
- GI50 (NCI-H226 lung): 6.6 µM
- GI50 (MCF7 breast): 7.42 µM
- GI50 (CCRF-CEM leukemia): 3.83 µM
- GI50 (NCI/ADR-RES ovarian): 3.02 µM
- GI50 (RXF 393 renal): 6.29 µM
- GI50 (HL-60(TB) leukemia): 2.68 µM
- TGI (HL-60(TB) leukemia): 5.16 µM
- GI50 (LOX IMVI melanoma): 9.67 µM
- GI50 (HOP-92 NSCLC): 8.09 µM
- GI50 (M14 melanoma): 8.59 µM
- GI50 (NCI-H23 lung): 4.38 µM
- GI50 (OVCAR-8 ovarian): 5.64 µM
- GI50 (PC-3 prostate): 9.46 µM
- GI50 (HCT-15 colon): 7.34 µM
- GI50 (SK-MEL-5 melanoma): 2.17 µM
- TGI (SK-MEL-5 melanoma): 4.19 µM
- GI50 (DU-145 prostate): 5.86 µM
- GI50 (COLO 205 colon): 4.39 µM
- GI50 (RPMI-8226 leukemia): 2.18 µM
- TGI (RPMI-8226 leukemia): 5.27 µM
- GI50 (MDA-MB-468 breast): 1.62 µM
- TGI (MDA-MB-468 breast): 4.37 µM
- GI50 (EKVX NSCLC): 4.39 µM
- GI50 (T-47D breast): 1.92 µM
- TGI (T-47D breast): 6.25 µM
- GI50 (MOLT-4 leukemia): 2.07 µM
- TGI (MOLT-4 leukemia): 3.86 µM
- GI50 (SR leukemia): 2.08 µM
- TGI (SR leukemia): 5.25 µM
- GI50 (OVCAR-4 ovarian): 3.75 µM
- GI50 (NCI-H322M lung): 8.82 µM
- GI50 (SF-295 CNS): 7.65 µM
- GI50 (NCI-H522 lung): 6.23 µM
- GI50 (UACC-257 melanoma): 5.3 µM
- GI50 (MALME-3M melanoma): 3.24 µM
- GI50 (K-562 leukemia): 4.85 µM
